Data published in patent publication US20170334899A1, “AMINO-SUBSTITUTED ISOTHIAZOLES” (Bayer Pharma Aktiengesellschaft, priority 2014, published 2017).

Experiments:
[1] = tested on: human cervical tumor cell line HeLa (ATCC CCL-2); assay: SAC-Formation - Paclitaxel-Induced Assay; type: cell-based; conditions: Homo sapiens, HeLa, 24 h, HeLa cells, paclitaxel 0.05 μM, test range 0.005 μM-20 μM, read-out: IC50 [mol/l] SAC-Formation - Paclitaxel-Induced Assay
Procedure, shortened: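 HeLa cells incubated overnight at 37° C, then given paclitaxel (0.05 μM final) plus test compound (0.005–20 μM, 0.5% DMSO) together for 24 h at 37° C. Fixed cells stained for phospho-histone H3 Ser10 (mitotic cells) and Hoechst 33342 (cell count); imaging-derived mitotic index fitted by four-parameter Hill equation.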

HeLa = assay: Proliferation assay (crystal violet), HeLa; type: cell-based; conditions: Homo sapiens, HeLa, 96 h, HeLa cells; 4 days incubation; crystal violet staining; read-out: IC50 inhibition of proliferation, HeLa
Procedure, shortened: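 Seed 1000–5000 cells/well, 10% FCS; 24 h later replace medium and add compound (0.001–10 μM, 0.5% DMSO); incubate 4 d; glutaraldehyde fix, 0.1% crystal violet pH 3.0, elute with 10% acetic acid; A595; 4-parameter IC50.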

| IC50 [1] | IC50 (HeLa) | Compound |
| --- | --- | --- |
| 8.2 µM | 9.9 µM | Cc1nsc(Nc2cnc3ccccc3n2)c1C(=O)Nc1cccc(NS(=O)(=O)C2CN(CCF)C2)c1 [Example 287, N-[3-({[1-(2-fluoroethyl)azetidin-3-yl]sulfonyl}amino)phenyl]-3-methyl-5-(quinoxalin-2-ylamino)-1,2-thiazole-4-carboxamide] |
| 2.1 µM | 7.6 µM | CC(=O)N1CCC(Oc2ccc(NC(=O)c3c(C)nsc3Nc3cnc4ccccc4n3)cn2)CC1 [Example 22, N-{6-[(1-acetylpiperidin-4-yl)oxy]pyridin-3-yl}-3-methyl-5-(quinoxalin-2-ylamino)-1,2-thiazole-4-carboxamide] |
| 2.1 µM | 9.4 µM | Cc1nsc(Nc2cnc(C(F)(F)F)cn2)c1C(=O)Nc1ccc(C(=O)NC2CN(CC(F)F)C2)cc1 [Example 271, N-(4-{[1-(2,2-difluoroethyl)azetidin-3-yl]carbamoyl}phenyl)-3-methyl-5-{[5-(trifluoromethyl)pyrazin-2-yl]amino}-1,2-thiazole-4-carboxamide] |
| 1.1 µM | 6.2 µM | Cc1nsc(Nc2cnc3ccccc3n2)c1C(=O)Nc1cccc(C(=O)NC2CC2)c1 [Example 249, N-[3-(cyclopropylcarbamoyl)phenyl]-3-methyl-5-(quinoxalin-2-ylamino)-1,2-thiazole-4-carboxamide] |
| 0.38 µM | 0.69 µM | Cc1nsc(Nc2cnc(C(F)(F)F)cn2)c1C(=O)Nc1ccc(F)c(OCCCNCCC(F)(F)F)c1 [Example 307, N-(4-fluoro-3-{3-[(3,3,3-trifluoropropyl)amino]propoxy}phenyl)-3-methyl-5-{[5-(trifluoromethyl)pyrazin-2-yl]amino}-1,2-thiazole-4-carboxamide] |
| 4.8 µM | 9.4 µM | Cc1nsc(Nc2cnc(C(F)(F)F)cn2)c1C(=O)Nc1ccc(C(=O)N2CCN(C)CC2)cc1 [Example 262, 3-methyl-N-{4-[(4-methylpiperazin-1 yl)carbonyl]phenyl}-5-{[5-(trifluoromethyl)pyrazin-2-yl]amino}-1,2-thiazole-4-carboxamide] |
| 1.2 µM | 0.38 µM | Cc1nsc(Nc2cnc(C(F)(F)F)cn2)c1C(=O)Nc1ccc(OC2CCN(CCF)C2)nc1 (stereo not drawn) [Example 295, N-(6-{[1-(2-fluoroethyl)pyrrolidin-3-yl]oxy}pyridin-3-yl)-3-methyl-5-{[5-(trifluoromethyl)pyrazin-2-yl]amino}-1,2-thiazole-4-carboxamide] |
| 0.94 µM | 3.1 µM | Cc1nsc(Nc2cnc3ccccc3n2)c1C(=O)Nc1ccc(N2CCN(C(=O)OC(C)(C)C)CC2)nc1 [Example 248, tert-butyl 4-[5-({[3-methyl-5-(quinoxalin-2-ylamino)-1,2-thiazol-4-yl]carbonyl}amino)pyridin-2-yl]piperazine-1-carboxylate] |
| 2.2 µM | 3.1 µM | Cc1nsc(Nc2cnc3ccccc3n2)c1C(=O)Nc1cccc(C(=O)NC(C)C)c1 [Example 253, N-[3-(isopropylcarbamoyl)phenyl]-3-methyl-5-(quinoxalin-2-ylamino)-1,2-thiazole-4-carboxamide] |
| 0.61 µM | 0.63 µM | Cc1nsc(Nc2cnc(C(F)(F)F)cn2)c1C(=O)Nc1ccc(F)c(OCC2CCN(CCF)CC2)c1 [Example 309, N-(4-fluoro-3-{[1-(2-fluoroethyl)piperidin-4-yl]methoxy}phenyl)-3-methyl-5-{[5-(trifluoromethyl)pyrazin-2-yl]amino}-1,2-thiazole-4-carboxamide] |
| 0.13 µM | 0.63 µM | Cc1nsc(Nc2ccc(C#N)cn2)c1C(=O)Nc1ccc(OC2CCN(C(=O)OC(C)(C)C)CC2)nc1 [Example 27, tert-Butyl 4-({5-[({5-[(5-cyanopyridin-2-yl)amino]-3-methyl-1,2-thiazol-4-yl}-carbonyl)amino]pyridin-2-yl}oxy)piperidine-1-carboxylate] |
| 0.29 µM | 0.68 µM | Cc1nsc(Nc2cnc(C(F)(F)F)cn2)c1C(=O)Nc1ccc(F)c(OCC2CCN(C(CF)CF)C2)c1 (stereo not drawn) [Example 320, N-(3-{[1-(1,3-difluoropropan-2-yl)pyrrolidin-3-yl]methoxy}-4-fluorophenyl)-3-methyl-5-{[5-(trifluoromethyl)pyrazin-2-yl]amino}-1,2-thiazole-4-carboxamide] |
| 4.8 µM | 7.6 µM | Cc1nsc(Nc2cncc(C(F)(F)F)n2)c1C(=O)Nc1ccc(C(=O)N2CCN(CC(F)F)CC2)cc1 [Example 273, N-(4-{[4-(2,2-difluoroethyl)piperazin-1-yl]carbonyl}phenyl)-3-methyl-5-{[6-(trifluoromethyl)pyrazin-2-yl]amino}-1,2-thiazole-4-carboxamide] |
| 10 µM | 6.1 µM | Cc1nsc(Nc2ccc(C#N)cn2)c1C(=O)Nc1cccc(C(=O)NC(C)C)c1 [Example 255, 5-[(5-cyanopyridin-2-yl)amino]-N-[3-(isopropylcarbamoyl)phenyl]-3-methyl-1,2-thiazole-4-carboxamide] |
| 0.072 µM | 0.13 µM | Cc1nsc(Nc2cnc(C(F)(F)F)cn2)c1C(=O)Nc1ccc(F)c(OC2CCN(CC(F)(F)F)CC2)c1 [Example 264, N-(4-fluoro-3-{[1-(2,2,2-trifluoroethyl)piperidin-4-yl]oxy}phenyl)-3-methyl-5-{[5-(trifluoromethyl)pyrazin-2-yl]amino}-1,2-thiazole-4-carboxamide] |
| 4 µM | 5.3 µM | Cc1nsc(Nc2cnc(C(F)(F)F)cn2)c1C(=O)Nc1ccc(OCCCNCC(F)F)nc1 [Example 293, N-(6-{3-[(2,2-difluoroethyl)amino]propoxy}pyridin-3-yl)-3-methyl-5-{[5-(trifluoromethyl)pyrazin-2-yl]amino}-1,2-thiazole-4-carboxamide] |
| 7.1 µM | 8.4 µM | Cc1nsc(Nc2cnc3ccccc3n2)c1C(=O)Nc1cccc(NS(=O)(=O)C2CCN(CCC(F)(F)F)CC2)c1 [Example 283, 3-methyl-5-(quinoxalin-2-ylamino)-N-[3-({[1-(3,3,3-trifluoropropyl)piperidin-4-yl]sulfonyl}amino)phenyl]-1,2-thiazole-4-carboxamide] |
| 0.15 µM | 0.32 µM | Cc1nsc(Nc2cnc(C(F)(F)F)cn2)c1C(=O)Nc1ccc(F)c(OC2CCN(CC(F)F)CC2)c1 [Example 265, N-(3-{[1-(2,2-difluoroethyl)piperidin-4-yl]oxy}-4-fluorophenyl)-3-methyl-5-{[5-(trifluoromethyl)pyrazin-2-yl]amino}-1,2-thiazole-4-carboxamide] |
| 0.72 µM | 2.2 µM | Cc1nsc(Nc2cnc(C(F)(F)F)cn2)c1C(=O)Nc1ccc(OCCCO)nc1 [Example 279, N-[6-(3-hydroxypropoxy)pyridin-3-yl]-3-methyl-5-{[5-(trifluoromethyl)pyrazin-2-yl]amino}-1,2-thiazole-4-carboxamide] |
| 10 µM | 3.2 µM | Cc1nsc(Nc2cnc(C(F)(F)F)cn2)c1C(=O)Nc1ccc(OCCO)nc1 [Example 277, N-[6-(2-hydroxyethoxy)pyridin-3-yl]-3-methyl-5-{[5-(trifluoromethyl)pyrazin-2-yl]amino}-1,2-thiazole-4-carboxamide] |
| 0.16 µM | 0.31 µM | Cc1nsc(Nc2cnc(C(F)(F)F)cn2)c1C(=O)Nc1ccc(F)c(OC2CCN(CCF)CC2)c1 [Example 266, N-(4-fluoro-3-{[1-(2-fluoroethyl)piperidin-4-yl]oxy}phenyl)-3-methyl-5-{[5-(trifluoromethyl)pyrazin-2-yl]amino}-1,2-thiazole-4-carboxamide] |
| 0.3 µM | 0.6 µM | Cc1nsc(Nc2cnc(C(F)(F)F)cn2)c1C(=O)Nc1ccc(OC2CCN(CC(F)F)C2)nc1 (stereo not drawn) [Example 296, N-(6-{[1-(2,2-difluoroethyl)pyrrolidin-3-yl]oxy}pyridin-3-yl)-3-methyl-5-{[5-(trifluoromethyl)pyrazin-2-yl]amino}-1,2-thiazole-4-carboxamide] |
| 3.6 µM | 8.8 µM | Cc1nsc(Nc2cnc3ccccc3n2)c1C(=O)Nc1cccc(NS(=O)(=O)C2CCN(C(=O)OC(C)(C)C)C2)c1 (stereo not drawn) [Example 290, tert-butyl 3-{[3-({[3-methyl-5-(quinoxalin-2-ylamino)-1,2-thiazol-4-yl]carbonyl}amino)phenyl]sulfamoyl} pyrrolidine-1-carboxylate] |
| 3.9 µM | 8 µM | Cc1nsc(Nc2cnc3ccccc3n2)c1C(=O)Nc1cccc(NS(=O)(=O)C2CCN(CC(F)(F)F)CC2)c1 [Example 281, 3-methyl-5-(quinoxalin-2-ylamino)-N-[3-({[1-(2,2,2-trifluoroethyl)piperidin-4-yl]sulfonyl}amino)phenyl]-1,2-thiazole-4-carboxamide] |
| 3.3 µM | 7.8 µM | Cc1nsc(Nc2cnc3ccccc3n2)c1C(=O)Nc1cccc(NS(=O)(=O)C2CCN(CC(F)(F)F)C2)c1 (stereo not drawn) [Example 289, 3-methyl-5-(quinoxalin-2-ylamino)-N-[3-({[1-(2,2,2-trifluoroethyl)pyrrolidin-3-yl]sulfonyl}amino)phenyl]-1,2-thiazole-4-carboxamide] |
| – | 0.42 µM | Cc1nsc(Nc2cnc(C(F)(F)F)cn2)c1C(=O)Nc1ccc(F)c(OCC2CCN(C(CF)CF)CC2)c1 [Example 312, N-(3-{[1-(1,3-difluoropropan-2-yl)piperidin-4-yl]methoxy}-4-fluorophenyl)-3-methyl-5-{[5-(trifluoromethyl)pyrazin-2-yl]amino}-1,2-thiazole-4-carboxamide] |
